We go through ten molecules from ChEMBL document CHEMBL1129706, “Z1046, a novel peripheral dopaminergic agent” (Bioorg Med Chem Lett, 1996).

For assay [1], the target named is Adrenergic receptor alpha-2 (Homo sapiens) (UniProt P08913+P18825+P18089). Particulars: Cavia porcellus; Cardiac atrium.
Description: Alpha-2 adrenergic receptor activity in guinea pig right atrium
Assay [2] deals with T1, Adrenergic receptor alpha-1 (Homo sapiens, UniProt P35348+P25100+P35368).
T1 sequence (P35348 whole entry): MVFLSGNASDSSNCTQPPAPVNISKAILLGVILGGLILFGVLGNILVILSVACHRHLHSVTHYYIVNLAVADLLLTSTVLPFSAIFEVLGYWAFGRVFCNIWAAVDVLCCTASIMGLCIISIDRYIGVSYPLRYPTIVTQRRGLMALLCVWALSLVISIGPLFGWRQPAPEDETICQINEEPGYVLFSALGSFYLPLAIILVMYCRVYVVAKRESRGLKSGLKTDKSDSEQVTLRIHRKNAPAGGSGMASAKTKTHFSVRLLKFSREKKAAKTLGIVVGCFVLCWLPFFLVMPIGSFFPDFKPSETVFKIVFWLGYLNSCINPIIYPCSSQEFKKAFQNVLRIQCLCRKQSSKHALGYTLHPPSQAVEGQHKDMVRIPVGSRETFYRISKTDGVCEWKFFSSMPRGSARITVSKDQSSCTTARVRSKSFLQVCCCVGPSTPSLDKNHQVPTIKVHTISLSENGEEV
T1 sequence (P25100 whole entry): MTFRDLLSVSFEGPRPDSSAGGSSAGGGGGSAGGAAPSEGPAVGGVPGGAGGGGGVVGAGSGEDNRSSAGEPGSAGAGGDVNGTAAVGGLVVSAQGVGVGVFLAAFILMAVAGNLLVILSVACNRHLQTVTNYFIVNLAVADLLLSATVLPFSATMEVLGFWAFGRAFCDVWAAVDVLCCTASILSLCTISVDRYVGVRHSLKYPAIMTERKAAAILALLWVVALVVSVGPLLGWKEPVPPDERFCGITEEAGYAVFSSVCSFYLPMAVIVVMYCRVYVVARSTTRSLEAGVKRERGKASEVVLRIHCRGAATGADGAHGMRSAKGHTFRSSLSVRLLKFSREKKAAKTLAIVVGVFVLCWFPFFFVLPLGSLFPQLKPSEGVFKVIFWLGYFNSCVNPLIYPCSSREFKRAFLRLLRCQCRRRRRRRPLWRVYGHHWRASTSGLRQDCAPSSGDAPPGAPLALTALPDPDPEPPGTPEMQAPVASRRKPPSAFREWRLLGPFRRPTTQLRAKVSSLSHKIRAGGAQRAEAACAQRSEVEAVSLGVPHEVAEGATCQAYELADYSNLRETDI
T1 sequence (P35368 whole entry): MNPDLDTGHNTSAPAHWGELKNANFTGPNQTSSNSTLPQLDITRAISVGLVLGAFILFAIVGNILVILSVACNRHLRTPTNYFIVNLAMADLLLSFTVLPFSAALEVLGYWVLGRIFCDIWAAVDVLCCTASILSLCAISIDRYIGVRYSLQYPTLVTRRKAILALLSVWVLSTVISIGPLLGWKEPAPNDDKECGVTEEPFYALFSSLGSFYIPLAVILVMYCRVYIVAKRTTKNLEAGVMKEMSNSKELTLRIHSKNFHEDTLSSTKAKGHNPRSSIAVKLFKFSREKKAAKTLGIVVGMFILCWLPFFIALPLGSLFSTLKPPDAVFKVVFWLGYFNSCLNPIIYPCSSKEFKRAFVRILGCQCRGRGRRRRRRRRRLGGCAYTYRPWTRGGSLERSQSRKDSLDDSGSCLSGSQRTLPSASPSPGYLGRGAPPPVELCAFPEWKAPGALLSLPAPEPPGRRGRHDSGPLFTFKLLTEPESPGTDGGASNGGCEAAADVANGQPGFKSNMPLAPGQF
Kind of assay: Activity at alpha-1 adrenergic receptor in rabbit aorta rings. It counts as tissue-based, Oryctolagus cuniculus. Particulars: target entry is the homologue from another species.

The target in assay [3] is D(1A) dopamine receptor (Homo sapiens) (UniProt P21728). Conditions: Oryctolagus cuniculus.
Description: Dopamine receptor D1 like evaluated for mesenteric blood flow increase in anesthetized rabbit
For assay [4], the target named is D(2) dopamine receptor (Homo sapiens) (UniProt P14416). Conditions: Oryctolagus cuniculus; Artery.
Description: Activity at Dopamine receptor D2 in rabbit ear artery
The target of assay [5] is Adrenergic receptor alpha-1 (Homo sapiens) (UniProt P35348+P25100+P35368). Conditions: Oryctolagus cuniculus; Aorta.

Chain of D(2) dopamine receptor (Homo sapiens) (P14416 whole entry): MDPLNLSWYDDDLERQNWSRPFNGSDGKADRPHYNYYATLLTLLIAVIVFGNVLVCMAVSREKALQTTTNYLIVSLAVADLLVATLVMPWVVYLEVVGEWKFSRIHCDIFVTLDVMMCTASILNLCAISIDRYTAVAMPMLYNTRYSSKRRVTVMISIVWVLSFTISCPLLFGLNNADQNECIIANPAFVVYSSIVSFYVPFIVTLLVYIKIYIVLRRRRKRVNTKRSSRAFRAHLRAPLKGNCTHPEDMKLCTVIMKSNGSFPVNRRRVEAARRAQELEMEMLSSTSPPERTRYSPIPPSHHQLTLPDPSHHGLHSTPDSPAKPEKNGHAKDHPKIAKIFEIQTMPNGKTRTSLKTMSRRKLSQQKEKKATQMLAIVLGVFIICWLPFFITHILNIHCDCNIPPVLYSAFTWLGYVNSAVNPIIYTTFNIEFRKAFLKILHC
Chain of D(1A) dopamine receptor (Homo sapiens) (P21728 whole entry): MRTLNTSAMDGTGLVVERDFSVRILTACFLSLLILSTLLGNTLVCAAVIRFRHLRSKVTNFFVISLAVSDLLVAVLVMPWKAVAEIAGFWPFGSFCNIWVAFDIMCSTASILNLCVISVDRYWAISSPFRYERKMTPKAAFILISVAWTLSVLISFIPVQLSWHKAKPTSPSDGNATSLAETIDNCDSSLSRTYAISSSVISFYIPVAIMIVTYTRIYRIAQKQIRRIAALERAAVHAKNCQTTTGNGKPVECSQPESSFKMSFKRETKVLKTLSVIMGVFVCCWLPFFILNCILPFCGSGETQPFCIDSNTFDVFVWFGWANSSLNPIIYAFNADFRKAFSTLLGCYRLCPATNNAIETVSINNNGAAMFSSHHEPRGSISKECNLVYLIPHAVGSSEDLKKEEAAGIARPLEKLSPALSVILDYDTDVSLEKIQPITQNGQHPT

For `CCCN(CCCCCCNCCOc1ccccc1OC)[C@H]1CCc2c(ccc(O)c2O)C1`, the pD2 was 6.7 in assay [1] and 9 in assay [4]. The same molecule returned a pA2 in assay [2] of 6.5. The molecule also gave an ED20 in assay [3] of 13 nM/kg.
For `CCCN(CCCCCCNCCOc1ccccc1OC)[C@@H]1CCc2c(ccc(O)c2O)C1` the same measures were less than 5, 6.5, 6.9 and 1050 nM/kg.
`CCCN(CCCCCCN(C)CCOc1ccccc1OC)[C@H]1CCc2c(ccc(O)c2O)C1`: the pD2 is 6.9 in assay [1] and 8.5 in assay [4]. Further, the pA2 in assay [2] is listed as less than 5. The molecule also showed an ED20 in assay [3] of 34 nM/kg.
The matching figures for `CCCN(CCCCCCCNCCOc1ccccc1OC)[C@H]1CCc2c(ccc(O)c2O)C1`: 5.7, 8.4, 6.8 and 35 nM/kg.
Consider `CCCN(CCCCCNCCOc1ccccc1OC)[C@H]1CCc2c(ccc(O)c2O)C1`, for which the pD2 in assay [1] was 6.5; in assay [4] it was 8.7. The molecule further registered a pA2 in assay [2] of 6.5. In assay [3], this molecule displayed an ED20 of 107 nM/kg.
`CNC[C@H](O)c1cccc(O)c1` registered a pD2 in assay [5] of 6.5.
For `CCCN(CCCCCCNCCOc1ccccc1OC)CCc1ccc(O)c(O)c1`, the pD2 in assay [1] is less than 5; in assay [4] it was 7.56. In addition, the pA2 in assay [2] stood at 6.5. For the same molecule, the ED20 in assay [3] was greater than 3000 nM/kg.
In the case of `CCCCN(CCCCCCNCCOc1ccccc1OC)[C@H]1CCc2c(ccc(O)c2O)C1`, the pD2 was less than 5 in assay [1] and 7.5 in assay [4]. The pA2 in assay [2] is 6.6. Further, the ED20 in assay [3] was 60 nM/kg.
For `COc1ccccc1OCCNCCCCCCN[C@H]1CCc2c(ccc(O)c2O)C1` the same measures were less than 5, 6.5, 7.1 and greater than 3000 nM/kg.
Take `CCCN(CCCCCCN(CCC)[C@H]1CCc2c(ccc(O)c2O)C1)CCOc1ccccc1OC`: the pD2 is 6 in assay [1] and 7.4 in assay [4]. The molecule further displayed a pA2 in assay [2] of less than 5. The molecule also had an ED20 in assay [3] of 407 nM/kg.

Broadly, the pA2 is a measure of antagonist potency on a negative log scale.
